{
  "source": "patent EP1323715B1",
  "about": "“Inhibitors of cholesterol esterase” (The University of New Mexico, priority 1997, dated 1998)",
  "key": {"[1]": {"conditions": "rats, single intragastric dose simultaneous with feeding of cholesterol ester; cited from earlier work"}, "CE": {"target": "T1, CE (Homo sapiens, UniProt P19835)", "T1 sequence (P19835 21-753)": "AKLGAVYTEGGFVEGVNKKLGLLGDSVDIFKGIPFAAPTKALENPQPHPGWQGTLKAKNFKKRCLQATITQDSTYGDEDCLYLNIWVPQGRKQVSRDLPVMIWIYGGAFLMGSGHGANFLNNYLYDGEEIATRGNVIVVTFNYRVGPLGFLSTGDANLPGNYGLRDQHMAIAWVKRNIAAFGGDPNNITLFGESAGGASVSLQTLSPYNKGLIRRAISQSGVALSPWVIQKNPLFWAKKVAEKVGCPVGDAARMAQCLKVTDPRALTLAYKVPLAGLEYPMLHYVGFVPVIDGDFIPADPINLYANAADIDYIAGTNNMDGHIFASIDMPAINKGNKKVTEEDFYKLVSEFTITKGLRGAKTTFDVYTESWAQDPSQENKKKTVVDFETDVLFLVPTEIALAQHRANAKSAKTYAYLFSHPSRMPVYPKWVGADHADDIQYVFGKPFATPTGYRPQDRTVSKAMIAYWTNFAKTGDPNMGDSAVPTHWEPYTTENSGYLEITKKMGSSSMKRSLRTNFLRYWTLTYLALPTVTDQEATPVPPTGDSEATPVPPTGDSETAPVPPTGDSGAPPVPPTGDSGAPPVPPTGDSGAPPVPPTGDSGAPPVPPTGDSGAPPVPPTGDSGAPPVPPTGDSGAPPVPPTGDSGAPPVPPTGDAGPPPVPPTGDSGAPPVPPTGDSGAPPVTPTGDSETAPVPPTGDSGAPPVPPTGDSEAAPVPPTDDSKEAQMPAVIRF", "conditions": "in vitro; cited from earlier work"}, "lumenal CE": {"target": "T2, lumenal CE (Rattus norvegicus, UniProt P07882)", "T2 construct": "from tissue; host or cells: rat intestinal lumen (in vivo)", "T2 sequence (P07882 21-612)": "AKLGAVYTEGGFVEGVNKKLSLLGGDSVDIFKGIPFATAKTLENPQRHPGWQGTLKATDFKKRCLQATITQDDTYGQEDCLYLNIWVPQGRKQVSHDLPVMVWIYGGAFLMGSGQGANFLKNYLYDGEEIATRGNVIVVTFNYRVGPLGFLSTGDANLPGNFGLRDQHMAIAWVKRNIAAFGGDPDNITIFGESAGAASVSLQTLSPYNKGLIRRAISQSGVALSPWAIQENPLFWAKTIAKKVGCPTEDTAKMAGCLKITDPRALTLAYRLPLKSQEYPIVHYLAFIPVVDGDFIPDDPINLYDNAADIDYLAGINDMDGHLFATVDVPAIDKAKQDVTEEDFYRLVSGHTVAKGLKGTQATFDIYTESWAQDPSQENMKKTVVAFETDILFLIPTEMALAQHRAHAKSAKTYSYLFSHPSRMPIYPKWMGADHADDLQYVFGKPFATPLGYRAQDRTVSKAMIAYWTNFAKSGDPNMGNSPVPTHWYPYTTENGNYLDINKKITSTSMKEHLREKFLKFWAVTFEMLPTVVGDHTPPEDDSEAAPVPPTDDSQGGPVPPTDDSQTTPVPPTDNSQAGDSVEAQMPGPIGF", "conditions": "rats, single intragastric dose simultaneous with feeding of cholesterol ester; cited from earlier work"}, "[2]": {"target": "T3, cholesterol esterase (CE) (Homo sapiens, UniProt P19835)", "T3 sequence (P19835 21-753)": "T1 sequence (P19835 21-753)", "test": "Kinetic inhibition studies of CE with substrate p-nitrophenylbutyrate, Dixon plots", "conditions": "for inhibition of CE (in words): kinetic inhibition studies"}, "chymotrypsin": {"target": "chymotrypsin (Bos taurus, UniProt P00766)", "test": "Inhibition of chymotrypsin", "format": "biochemical", "from_the_text": "Thus, the compounds of the present invention which have a saturated ring as part of the 3-substituent provide tremendous selectivity when compared to compounds where the 3-substituent includes an aromatic ring."}},
  "data": [
    {"smiles": "O=c1oc(Cl)ccc1Cc1ccccc1", "note": "[3-benzyl-6-chloropyrone]", "values": [
      {"measurement": "drop in cholesterol absorption", "setting": "[1]", "value": 60, "unit": "%"},
      {"measurement": "half life of CE inactivation", "setting": "CE", "value": 1.67, "unit": "min"},
      {"measurement": "inactivation of lumenal CE activity", "setting": "lumenal CE", "value": 63, "unit": "%"}
    ]},
    {"smiles": "O=c1oc(Cl)ccc1CC1CCCCC1", "note": "[Example 2]", "values": [
      {"measurement": "inhibition of CE (in words)", "setting": "[2]", "value": "potent inhibitors of CE"}
    ]},
    {"smiles": "O=c1oc(Cl)ccc1CCC1CCCCC1", "note": "[Example 3]", "values": [
      {"measurement": "Ki", "setting": "chymotrypsin", "value": 50, "unit": "µM"},
      {"measurement": "Ki", "setting": "[2]; calculated Ki, apparent Ki from Dixon plots, equals one half of the concentration of CE used in the assay", "value": 0.03, "unit": "µM"}
    ]},
    {"smiles": "O=c1oc(Cl)ccc1CCCC1CCCCC1", "note": "[Example 4]", "values": [
      {"measurement": "inhibition of CE (in words)", "setting": "[2]", "value": "potent inhibitors of CE"}
    ]}
  ]
}
